The values below come from patent publication US10072017B2, “Compounds and methods for the treatment of cystic fibrosis” (Flatley Discovery Lab, LLC, priority 2015, dated 2018).

The target of this experiment is T1, CFTR (Homo sapiens, UniProt P13569, DEL508-508).
T1 construct: Primary CF airway epithelial cells were obtained from the UNC Cystic Fibrosis Tissue Procurement and Cell Culture Core; host or cells: primary CF airway epithelial cells
Nature of the experiment: Equivalent current assay in Primary CF airway epithelial cells (NAUC). As to conditions: 24 h, normalized to VX809 (3 μM) positive control; for Nauc @ 3 μM: 3 μM test compound; for Nauc @ 10 μM: 10 μM test compound. The format is cell-based. In outline:
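Primary CF airway epithelia differentiated ≥4 weeks at air-liquid interface, treated basolaterally 24 h at 37 °C with test compounds in combination with VX809, 0.1% DMSO vehicle. Equivalent current recorded after 5 μM benzamil, 10 μM forskolin plus 1 μM VX770, then CFTR-172/bumetanide 20 μM; vehicle-subtracted AUC normalized to 3 μM VX809 (NAUC), median of n≥4, sigmoid fit for EC50.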

T1 sequence (P13569 with tags, fused parts or gaps DEL508-508): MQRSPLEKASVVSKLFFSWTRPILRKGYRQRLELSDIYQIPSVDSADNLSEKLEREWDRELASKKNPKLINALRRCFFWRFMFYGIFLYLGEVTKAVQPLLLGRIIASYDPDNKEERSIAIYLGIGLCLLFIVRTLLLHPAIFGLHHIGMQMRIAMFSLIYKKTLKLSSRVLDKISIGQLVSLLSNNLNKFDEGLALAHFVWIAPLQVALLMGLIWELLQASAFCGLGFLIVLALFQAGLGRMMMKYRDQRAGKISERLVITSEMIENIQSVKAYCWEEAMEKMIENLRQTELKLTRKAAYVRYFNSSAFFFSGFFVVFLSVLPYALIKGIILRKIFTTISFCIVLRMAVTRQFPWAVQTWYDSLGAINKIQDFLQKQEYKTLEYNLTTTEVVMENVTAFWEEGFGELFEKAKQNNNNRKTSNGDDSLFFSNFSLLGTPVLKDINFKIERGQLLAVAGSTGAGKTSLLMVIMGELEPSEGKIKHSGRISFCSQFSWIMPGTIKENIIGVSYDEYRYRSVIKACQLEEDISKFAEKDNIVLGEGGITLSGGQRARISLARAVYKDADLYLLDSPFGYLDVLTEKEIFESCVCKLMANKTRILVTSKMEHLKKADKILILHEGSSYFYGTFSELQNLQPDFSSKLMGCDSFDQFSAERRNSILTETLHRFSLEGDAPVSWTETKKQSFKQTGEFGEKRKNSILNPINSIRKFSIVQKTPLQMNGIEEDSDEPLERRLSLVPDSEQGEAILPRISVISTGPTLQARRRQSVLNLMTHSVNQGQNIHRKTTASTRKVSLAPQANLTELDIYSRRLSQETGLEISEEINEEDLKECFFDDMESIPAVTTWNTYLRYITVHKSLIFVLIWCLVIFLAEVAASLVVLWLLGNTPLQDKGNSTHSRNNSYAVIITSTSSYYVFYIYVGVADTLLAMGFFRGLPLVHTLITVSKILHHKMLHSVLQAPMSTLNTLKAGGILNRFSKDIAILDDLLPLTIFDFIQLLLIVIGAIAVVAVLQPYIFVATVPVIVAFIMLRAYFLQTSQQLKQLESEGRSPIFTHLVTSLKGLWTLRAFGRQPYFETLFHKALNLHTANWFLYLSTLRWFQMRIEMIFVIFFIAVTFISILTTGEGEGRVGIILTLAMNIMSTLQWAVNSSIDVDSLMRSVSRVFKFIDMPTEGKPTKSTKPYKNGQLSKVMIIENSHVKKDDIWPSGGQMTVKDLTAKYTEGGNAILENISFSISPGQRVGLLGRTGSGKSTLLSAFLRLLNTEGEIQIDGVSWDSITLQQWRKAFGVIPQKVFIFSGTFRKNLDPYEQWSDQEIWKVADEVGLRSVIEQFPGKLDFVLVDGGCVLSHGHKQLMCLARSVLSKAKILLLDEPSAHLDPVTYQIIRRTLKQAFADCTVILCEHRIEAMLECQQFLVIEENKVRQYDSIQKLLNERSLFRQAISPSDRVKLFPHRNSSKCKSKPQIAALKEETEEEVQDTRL

On to `N[C@@H]1CC2C3C(=O)N(c4cc(Cl)cc(Cl)c4)C(=O)C3C3(C(=O)Nc4c(Cl)cc(Cl)cc43)N2C1` (stereo partly drawn) [Example 60], for which the “Nauc @ 3 μM” value is given as “+ (NAUC “+” refers to an observed NAUC <140% of positive control)” and the “Nauc @ 10 μM” value is “++ (NAUC “++” refers to an observed NAUC 170-140% of positive control)”.
On to `O=C1C2C3CCCN3C3(C(=O)Nc4c(Cl)cc(Cl)cc43)C2C(=O)N1c1cccc(Cl)c1` (stereo not drawn) [Example 11], for which the “Nauc @ 3 μM” value is listed as “+ (NAUC “+” refers to an observed NAUC <140% of positive control)” and the “Nauc @ 10 μM” value is “+++ (NAUC “+++” refers to an observed NAUC >170% of positive control)”.
In the case of `O=C1C2C3CC(F)(F)CN3C3(C(=O)Nc4c(Cl)cc(Cl)cc43)C2C(=O)N1c1cc(Cl)cc(Cl)c1` (stereo not drawn) [Example 53], the “Nauc @ 3 μM” value is reported as “++ (NAUC “++” refers to an observed NAUC 170-140% of positive control)” and the “Nauc @ 10 μM” value is reported as “++ (NAUC “++” refers to an observed NAUC 170-140% of positive control)”.
As to `N#Cc1cccc(N2C(=O)C3C4CCCN4C4(C(=O)Nc5c(Cl)cc(Cl)cc54)C3C2=O)c1` (stereo not drawn) [Example 14], the “Nauc @ 3 μM” value was “+ (NAUC “+” refers to an observed NAUC <140% of positive control)” and the “Nauc @ 10 μM” value was “++ (NAUC “++” refers to an observed NAUC 170-140% of positive control)”.
As for `O=C1C2C3CCCN3C3(C(=O)Nc4c(Cl)cc(Cl)cc43)C2C(=O)N1c1cccc(C(F)(F)F)c1` (stereo not drawn) [Example 15], the “Nauc @ 3 μM” value is “++ (NAUC “++” refers to an observed NAUC 170-140% of positive control)” and the “Nauc @ 10 μM” value was “+++ (NAUC “+++” refers to an observed NAUC >170% of positive control)”.
The corresponding values for `O=C1C2C3CC(C(F)F)CN3C3(C(=O)Nc4c(Cl)cc(Cl)cc43)C2C(=O)N1c1cc(Cl)nc(Cl)c1` (stereo not drawn) [Example 132] are “+ (NAUC “+” refers to an observed NAUC <140% of positive control)” and “++ (NAUC “++” refers to an observed NAUC 170-140% of positive control)”.
In the case of `O=C1C2C3CCCN3C3(C(=O)Nc4c(Cl)cc(Cl)cc43)C2C(=O)N1c1cc(Cl)cc(Cl)n1` (stereo not drawn) [Example 52], the “Nauc @ 3 μM” value is recorded as “++ (NAUC “++” refers to an observed NAUC 170-140% of positive control)” and the “Nauc @ 10 μM” value was “+++ (NAUC “+++” refers to an observed NAUC >170% of positive control)”.
Regarding `COc1cc(Cl)cc(N2C(=O)C3C4CC(=C(F)F)CN4C4(C(=O)Nc5c(Cl)cc(Cl)cc54)C3C2=O)c1` (stereo not drawn) [Example 117], the “Nauc @ 3 μM” value is recorded as “+++ (NAUC “+++” refers to an observed NAUC >170% of positive control)” and the “Nauc @ 10 μM” value was “+++ (NAUC “+++” refers to an observed NAUC >170% of positive control)”.
In the case of `O=C1C2C3C[C@H](CF)CN3C3(C(=O)Nc4c(Cl)cc(Cl)cc43)C2C(=O)N1c1cc(Cl)cc(Cl)c1` (stereo partly drawn) [Example 109], the “Nauc @ 3 μM” value was “++ (NAUC “++” refers to an observed NAUC 170-140% of positive control)” and the “Nauc @ 10 μM” value is on record as “++ (NAUC “++” refers to an observed NAUC 170-140% of positive control)”.
In the case of `COc1ccc(CC2NC3(C(=O)Nc4c(Cl)cc(Cl)cc43)C3C(=O)N(c4cc(Cl)cc(Cl)c4)C(=O)C23)cc1` (stereo not drawn) [Example 198], the “Nauc @ 3 μM” value is “+ (NAUC “+” refers to an observed NAUC <140% of positive control)” and the “Nauc @ 10 μM” value is listed as “++ (NAUC “++” refers to an observed NAUC 170-140% of positive control)”.
The corresponding values for `O=C1C2C(Cc3ccccc3Cl)NC3(C(=O)Nc4c(Cl)cc(Cl)cc43)C2C(=O)N1c1cc(Cl)cc(Cl)c1` (stereo not drawn) [Example 246] are “+++ (NAUC “+++” refers to an observed NAUC >170% of positive control)” and “+++ (NAUC “+++” refers to an observed NAUC >170% of positive control)”.
The corresponding values for `O=C1C2C3CC(=C(F)F)CN3C3(C(=O)Nc4c(Cl)cc(Cl)cc43)C2C(=O)N1c1cc(Br)cc(Br)c1` (stereo not drawn) [Example 123] are “+ (NAUC “+” refers to an observed NAUC <140% of positive control)” and “+++ (NAUC “+++” refers to an observed NAUC >170% of positive control)”.
